The text below walks through data of patent publication US20240317792A1, “CYCLIC DINUCLEOTIDE METAL COMPOUND, AND PREPARATION AND APPLICATION THEREOF” (HANGZHOU XINGAO BIOTECHNOLOGY CO., LTD., priority 2022, published 2024).

For this assay, the system named is mouse colorectal cancer cell line CT26. As to the kind of experiment: Subcutaneously transplanted CT26 tumor growth inhibition. It counts as in vivo, BALB/c ordinary mice. The following applies: CT26 in BALB/c mice; 10 mg/kg intraperitoneal once every 2 days for 20 days. An excerpt: Experimental animals: BALB/c ordinary mice and C57BL/6 ordinary mice, male, weighing 20-22 grams, 7-8 weeks old, purchased from Shanghai SLAC Laboratory Animal Co. Ltd.
Tumour cell line: mouse colorectal cancer cell line CT26 and mouse breast cancer cell line 4T1, both purchased from Chinese Academy of Sciences Cell Bank.
Establishment and intervention of tumor model mice: cells were subjected to culture and subculture, collected in a logarithmic phase and prepared as 1.0×10^7/mL of cell suspension. 0.2 mL of the cell suspension was injected armpits of forelegs of the mice (with a cell number of 2.0×10^6), and tumor transplantation was successful in about 7 days. Mice with successful tumor transplantation were randomly divided into 7 groups (10 mice in each group). The 7 groups were listed as follows: A: negative control group (injection with normal saline); B: positive control cGAMP group (10 mg/kg of injection); C: [Li2(cGAMP)] group (10 mg/kg of injection); D: [Mg(cGAMP)] group (10 mg/kg of injection); E: [Zn(cGAMP)] group (10 mg/kg of injection); F: [Mn(cGAMP)] group (10 mg/kg of injection); and G: [Fe(cGAMP)] group (10 mg/kg of injection). The mice with successful tumor transplantation were subjected to administration by intraperitoneal injection with a volume of 200 μL per mice once every 2 days for 20 days. After 20 days, the mice with successful tumor transplantation were killed, and the tumor were weighed. A formula of inhibitory rate of tumor was as represented as inhibitory rate of tumor=[1−average tumor weight of experimental group/average tumor weight of the negative control group]×100%.
According to the establishment of tumor model mice, the mouse colorectal cancer cell line CT26 was cultured and transplanted to the BALB/c ordinary mice, and the mouse breast cancer cell line 4T1 was cultured and transplanted to the BALB/c ordinary mice.
Statistical analysis: data was expressed as mean±standard deviation and processed by the SPSS10.0 software. One-way ANOVA was used to detect and compare significance of tumor weights in each group.
Regarding `Nc1nc2c(ncn2C2OC3COP(=O)([O-])OC4C(COP(=O)([O-])OC2C3O)OC(n2cnc3c(N)ncnc32)C4O)c(=O)[nH]1.[Mn+2]` (stereo not drawn) [[Mn(cGAMP)], manganese cyclic dinucleotide], the “Average inhibitory rate of the tumor” value is on record as 85.8% and the Average tumor weight is reported as 0.258 ± 0.105 g.

For `Nc1nc2c(ncn2[C@@H]2O[C@@H]3COP(=O)([O-])O[C@H]4[C@@H](O)[C@H](n5cnc6c(N)ncnc65)O[C@@H]4COP(=O)([O-])O[C@@H]2[C@@H]3O)c(=O)[nH]1.[Li+].[Li+]` [[Li2(cGAMP)], lithium cyclic dinucleotide], the “Average inhibitory rate of the tumor” value is 63.0% and the Average tumor weight stood at 0.675 ± 0.163 g.

In the case of `Nc1nc2c(ncn2[C@@H]2O[C@@H]3COP(=O)([O-])O[C@H]4[C@@H](O)[C@H](n5cnc6c(N)ncnc65)O[C@@H]4COP(=O)([O-])O[C@@H]2[C@@H]3O)c(=O)[nH]1.[Zn+2]` [[Zn(cGAMP)], zinc cyclic dinucleotide], the “Average inhibitory rate of the tumor” value came to 88.9% and the Average tumor weight is recorded as 0.201 ± 0.123 g.

Regarding `Nc1nc2c(ncn2[C@@H]2O[C@@H]3COP(=O)(O)O[C@H]4[C@@H](O)[C@H](n5cnc6c(N)ncnc65)O[C@@H]4COP(=O)(O)O[C@@H]2[C@@H]3O)c(=O)[nH]1` [cGAMP, 2′3′-cGAMP, reference compound], the “Average inhibitory rate of the tumor” value turned out to be 61.0% and the Average tumor weight was 0.712 ± 0.145 g.

Turning to `Nc1nc2c(ncn2[C@@H]2O[C@@H]3COP(=O)([O-])O[C@H]4[C@@H](O)[C@H](n5cnc6c(N)ncnc65)O[C@@H]4COP(=O)([O-])O[C@@H]2[C@@H]3O)c(=O)[nH]1.[Mg+2]` [[Mg(cGAMP)], magnesium cyclic dinucleotide], the “Average inhibitory rate of the tumor” value is 65.2% and the Average tumor weight was 0.635 ± 0.178 g.

Regarding `Nc1nc2c(ncn2C2OC3COP(=O)([O-])OC4C(COP(=O)([O-])OC2C3O)OC(n2cnc3c(N)ncnc32)C4O)c(=O)[nH]1.[Fe+2]` (stereo not drawn) [[Fe(cGAMP)], ferrous cyclic dinucleotide], the “Average inhibitory rate of the tumor” value stood at 83.5% and the Average tumor weight is 0.301 ± 0.112 g.
